Drawing on US8198456B2, “Dihydropyridine derivatives as useful as protein kinase inhibitors” (Bayer Intellectual Property GmbH, priority 2006, dated 2012), this text covers IC50 for 31 molecules.

For orientation: IC50 means the midpoint of a concentration-inhibition curve.

Structures can show the parent of a compound that is named as a salt.

For the test, the target named is T1, recombinant human c-MET kinase enzyme domain (Homo sapiens, UniProt P08581).
T1 construct: Recombinant c-Met kinase domain (amino acids 960-1390); His (N); made in house; host or cells: baculovirus expression system (insect cells; SF21 is named only for the alternative format)
T1 sequence (P08581 960-1390): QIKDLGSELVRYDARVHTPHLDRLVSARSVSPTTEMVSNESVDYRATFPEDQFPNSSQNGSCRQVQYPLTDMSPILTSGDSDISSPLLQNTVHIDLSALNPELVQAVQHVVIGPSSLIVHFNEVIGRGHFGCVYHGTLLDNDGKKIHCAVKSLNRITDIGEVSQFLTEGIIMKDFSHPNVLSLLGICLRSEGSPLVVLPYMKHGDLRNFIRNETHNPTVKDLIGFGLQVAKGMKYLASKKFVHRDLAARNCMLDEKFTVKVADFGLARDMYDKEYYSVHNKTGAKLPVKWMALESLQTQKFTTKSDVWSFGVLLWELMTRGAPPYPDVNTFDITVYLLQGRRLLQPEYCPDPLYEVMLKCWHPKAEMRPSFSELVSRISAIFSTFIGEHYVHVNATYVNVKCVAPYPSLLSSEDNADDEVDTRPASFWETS
The test can be described thus: c-MET receptor tyrosine kinase Homogeneous Time Resolved Fluorescence assay (HTRF). In kind it is biochemical. The note with it: Biological Example 1 and/or Biological Example 2. The text has this:
Recombinant c-Met kinase domain (amino acids 960-1390) was produced in a baculovirus expression vector as an N-terminal His-tagged fusion protein and purified on a NiNTA column. The resulting purified enzyme was then used in the following c-Met Homogeneous Time Resolved Fluorescence assay (HTRF) to find compounds of the invention and to perform initial activity determinations. Specifically, this assay measures the ability of compounds of the invention to inhibit the phosphorylation of a randomly synthesized, biotinylated heterocopolymeric polypeptide composed of glutamic acid and tyrosine, with an average length of 100 aa. The assay analyzes the amount of phosphorylated polypeptide produced.
The enzymatic phosphorylation of the biotinylated heterocopolymeric polypeptide was performed in a black 384-well plate at ambient temperature in a reaction mixture containing 50 mM HEPES (pH 7.4), 5 mM MgCl2, 5 mM MnCl2, 0.01% Tween-20, and 2 mM DTT, […] recombinant human c-MET kinase enzyme domain, 37 nM biotinylated heterocopolymeric polypeptide composed of glutamic acid and tyrosine, 20 μM ATP, 1% DMSO in the absence or presence of a compound of the invention. The reaction was stopped after a 20-minute incubation by the addition of 80 mM EDTA.
The formation of phosphorylated heterocopolymeric, biotinylated polypeptide was quantified with the HTRF assay technology using an anti-phosphotyrosine antibody, PT66, conjugated to europium cryptate, mixed with a streptavidin-XL665 conjugate. Reduced or inhibited phosphorylation of the heterocopolymeric, biotinylated polypeptide prevents the anti-phosphotyrosine antibody from binding to the peptide, resulting in a loss of energy transfer to the streptavidin-XL665 conjugate.
Following the 384-well enzymatic phosphorylation reaction outlined above, the detection of phosphorylated heterocopolymeric, biotinylated polypeptide was performed by dilution of the stopped reaction mixture 2-fold with 50 mM HEPES (pH 7.0), 500 mM KF, 0.1% BSA, streptavidin-XL665 (20 nM), and anti-phosphotyrosine antibody PT66-crypate conjugate (6.4 ng/well) and incubation for four hours at ambient temperature. Plates were read in an Envision plate reader (PerkinElmer Life and Analytical Sciences, Inc., MA) simultaneously at 620 nm and 665 nm to obtain signal ratios of 665 nm/620 nm. Results of energy transfer were expressed as signal ratios of 665 nm/620 nm. Negative controls were samples without recombinant c-MET or c-MET treated with 100 mM EDTA.
For determination of IC50 values of particular compounds of the invention, eight serially diluted compound concentrations (at 1:3.16 dilution) were used in the assay. Controls without a compound of the invention or with a reference compound were run in parallel in the same assay plate.
With `CC1=C(C#N)C(c2ccc3[nH]nc(-c4ccncc4)c3c2)C(C#N)=C(C)N1` [94.2, 1,4-dihydro-2,6-dimethyl-4-[3-(4-pyridinyl)-1H-indazol-5-yl]-3,5-pyridinedicarbonitrile, acetic acid salt], the IC50 is less than 100 nM. The same measure for `CNC(=O)c1n[nH]c2ccc(C3C(C#N)=C(C)NC(C)=C3C#N)cc12` [99.1, 5-(3,5-dicyano-1,4-dihydro-2,6-dimethyl-4-pyridinyl)-N-methyl-1H-indazole-3-carboxamide, TFA salt]: less than 100 nM.

As to `CC1=C(C#N)C(c2ccc3[nH]nc(C(=O)NCCN(C)C)c3c2)C(C#N)=C(C)N1` [103.1, 5-(3,5-dicyano-1,4-dihydro-2,6-dimethyl-4-pyridinyl)-N-[2-(dimethylamino)-ethyl]-1H-indazole-3-carboxamide, TFA salt], the IC50 is less than 100 nM. For `CC1=C(C#N)C(c2ccc3[nH]nc(C(=O)NCCCN(C)C)c3c2)C(C#N)=C(C)N1` [106.1, 5-(3,5-dicyano-2,6-dimethyl-1,4-dihydro-pyridin-4-yl)-1H-indazole-3-carboxylic acid (3-dimethylamino-propyl)-amide, TFA salt], the IC50 was less than 100 nM. In the case of `CC1=C(C#N)C(c2ccc3[nH]nc(C(=O)N(C)C)c3c2)C(C#N)=C(C)N1` [114.1, 5-(3,5-dicyano-2,6-dimethyl-1,4-dihydro-pyridin-4-yl)-1H-indazole-3-carboxylic acid dimethylamide, TFA salt], the IC50 was less than 100 nM.

Regarding `CCCN1CCN(c2n[nH]c3ccc(C4C(C#N)=C(C)NC(C)=C4C#N)cc23)CC1` [165.1, 2,6-dimethyl-4-[3-(4-propyl-piperazin-1-yl)-1H-indazol-5-yl]-1,4-dihydropyridine-3,5-dicarbonitrile, TFA salt], the IC50 is less than 100 nM. In the case of `CCOC(=O)N1CCN(Cc2n[nH]c3ccc(C4C(C#N)=C(C)NC(C)=C4C#N)cc23)CC1` [167.1, 4-[5-(3,5-Dicyano-2,6-dimethyl-1,4-dihydro-pyridin-4-yl)-1H-indazol-3-ylmethyl]-piperazine-1-carboxylic acid ethyl ester, TFA salt] it was less than 100 nM. The same measure for `COC(=O)c1cccc(C2C(C#N)=C(C)NC(C)=C2C#N)c1` [compound 10, 3-(3,5-dicyano-1,4-dihydro-2,6-dimethyl-4-pyridinyl)-benzoic acid, methyl ester]: 100 to 500 nM; for `CNC(=O)c1cccc(C2C(C#N)=C(C)NC(C)=C2C#N)c1` [compound 12, 3-(3,5-dicyano-2,6-dimethyl-1,4-dihydro-pyridin-4-yl)-N-methyl-benzamide, TFA salt]: 500 to 2500 nM; for `CC1=C(C#N)C(c2cccc(C(N)=O)c2)C(C#N)=C(C)N1` [compound 17, 3-(3,5-dicyano-1,4-dihydro-2,6-dimethyl-4-pyridinyl)-benzamide]: 500 to 2500 nM. In the case of `CC1=C(C#N)C(c2cccc(C(=O)Nc3cccnc3)c2)C(C#N)=C(C)N1` [compound 21, 3-(3,5-dicyano-1,4-dihydro-2,6-dimethyl-4-pyridinyl)-N-3-pyridinyl-benzamide] it was 100 to 500 nM; in that of `CNC(=O)c1cccc(C2C(C#N)=C(C)NC(C)=C2C#N)c1` [compound 22, 3-(3,5-dicyano-1,4-dihydro-2,6-dimethyl-4-pyridinyl)-N-methyl-benzamide], 100 to 500 nM. As for `CC1=C(C#N)C(c2cccc(C(=O)NCCc3ccncc3)c2)C(C#N)=C(C)N1` [compound 23, 3-(3,5-dicyano-1,4-dihydro-2,6-dimethyl-4-pyridinyl)-N-[2-(4-pyridinyl)ethyl]-benzamide], the IC50 lay within 500 to 2500 nM. Turning to `CC1=C(C#N)C(c2cccc(C(=O)NCCC3CCNCC3)c2)C(C#N)=C(C)N1` [compound 26, 3-(3,5-dicyano-1,4-dihydro-2,6-dimethyl-4-pyridinyl)-N-[2-(4-piperidinyl)ethyl]-benzamide], the IC50 was in the range of 100 to 500 nM. `CC(=O)Nc1cccc(C2C(C#N)=C(C)NC(C)=C2C#N)c1` [compound 27, N-[3-(3,5-dicyano-1,4-dihydro-2,6-dimethyl-4-pyridinyl)phenyl]-acetamide]: the IC50 lay within 500 to 2500 nM. Turning to `CC1=C(C#N)C(c2cccc(C(=O)NCCCn3ccnc3)c2)C(C#N)=C(C)N1` [compound 32, 3-(3,5-dicyano-1,4-dihydro-2,6-dimethyl-4-pyridinyl)-N-[3-(1H-imidazol-1-yl)propyl]-benzamide], the IC50 lay within 100 to 500 nM.

Consider `COC(=O)Nc1cccc(C2C(C#N)=C(C)NC(C)=C2C#N)c1` [compound 34, [3-(3,5-dicyano-1,4-dihydro-2,6-dimethyl-4-pyridinyl)phenyl]-carbamic acid, methyl ester], for which the IC50 was 500 to 2500 nM. The same measure for `CC1=C(C#N)C(c2cccc(NC(=O)c3cccnc3)c2)C(C#N)=C(C)N1` [compound 38, N-[3-(3,5-dicyano-1,4-dihydro-2,6-dimethyl-4-pyridinyl)phenyl]-3-pyridinecarboxamide]: 500 to 2500 nM; for `CC1=C(C#N)C(c2cccc(C(=O)Nc3ccccn3)c2)C(C#N)=C(C)N1` [compound 43, 3-(3,5-dicyano-1,4-dihydro-2,6-dimethyl-4-pyridinyl)-N-2-pyridinyl-benzamide]: less than 100 nM.

As for `CCOCCCNC(=O)c1cccc(C2C(C#N)=C(C)NC(C)=C2C#N)c1` [compound 45, 3-(3,5-dicyano-1,4-dihydro-2,6-dimethyl-4-pyridinyl)-N-(3-ethoxypropyl)-benzamide], the IC50 is 500 to 2500 nM. As to `CC1=C(C#N)C(c2cccc(NC(=O)CBr)c2)C(C#N)=C(C)N1` [compound 47, 2-bromo-N-[3-(3,5-dicyano-1,4-dihydro-2,6-dimethyl-4-pyridinyl)phenyl]-acetamide], the IC50 lay within 500 to 2500 nM.

On to `CC1=C(C#N)C(c2cccc(C(=O)Nc3ccc(C)cn3)c2)C(C#N)=C(C)N1` [compound 51, 3-(3,5-dicyano-1,4-dihydro-2,6-dimethyl-4-pyridinyl)-N-(5-methyl-2-pyridinyl)-benzamide], for which the IC50 lay within 100 to 500 nM. With `CC1=C(C#N)C(c2cccc(NC(=O)c3ccncc3)c2)C(C#N)=C(C)N1` [compound 57, N-[3-(3,5-dicyano-1,4-dihydro-2,6-dimethyl-4-pyridinyl)phenyl]-4-pyridinecarboxamide], the half-inhibitory concentration (IC50) was 500 to 2500 nM. The same measure for `CC1=C(C#N)C(c2cccc(NC(=O)c3ccccn3)c2)C(C#N)=C(C)N1` [compound 58, N-[3-(3,5-dicyano-1,4-dihydro-2,6-dimethyl-4-pyridinyl)phenyl]-2-pyridinecarboxamide]: 100 to 500 nM; for `CC1=C(C#N)C(c2cccc(C(=O)Nc3ccc(C(F)(F)F)cn3)c2)C(C#N)=C(C)N1` [compound 60, 3-(3,5-dicyano-1,4-dihydro-2,6-dimethyl-4-pyridinyl)-N-[5-(trifluoromethyl)-2-pyridinyl]-benzamide]: 500 to 2500 nM. Turning to `CC1=C(C#N)C(c2cccc(C(=O)Nc3nccs3)c2)C(C#N)=C(C)N1` [compound 61, 3-(3,5-dicyano-1,4-dihydro-2,6-dimethyl-4-pyridinyl)-N-2-thiazolyl-benzamide], the IC50 was 100 to 500 nM.

Regarding `CC1=C(C#N)C(c2cccc(C(=O)Nc3cccc(C)n3)c2)C(C#N)=C(C)N1` [compound 62, 3-(3,5-dicyano-1,4-dihydro-2,6-dimethyl-4-pyridinyl)-N-(6-methyl-2-pyridinyl)-benzamide], the 50% inhibitory concentration (IC50) was in the range of 500 to 2500 nM. On to `CC1=C(C#N)C(c2cccc(C(=O)Nc3ccc(N(C)C)cn3)c2)C(C#N)=C(C)N1` [compound 63, 3-(3,5-dicyano-1,4-dihydro-2,6-dimethyl-4-pyridinyl)-N-[5-(dimethylamino)-2-pyridinyl]-benzamide], for which the IC50 lay within 100 to 500 nM. With `CC1=C(C#N)C(c2cccc(NC(=O)c3ncc[nH]3)c2)C(C#N)=C(C)N1` [compound 65, N-[3-(3,5-dicyano-1,4-dihydro-2,6-dimethyl-4-pyridinyl)phenyl]-1H-imidazole-2-carboxamide], the IC50 was in the range of 100 to 500 nM. As for `CC1=C(C#N)C(c2cccc(NC(=O)c3cnc[nH]3)c2)C(C#N)=C(C)N1` [compound 66, N-[3-(3,5-dicyano-1,4-dihydro-2,6-dimethyl-4-pyridinyl)phenyl]-1H-imidazole-5-carboxamide], the IC50 was 100 to 500 nM.

On to `CC1=C(C#N)C(c2cccc(C(=O)Nc3cccc(N)n3)c2)C(C#N)=C(C)N1` [compound 68, N-(6-amino-2-pyridinyl)-3-(3,5-dicyano-1,4-dihydro-2,6-dimethyl-4-pyridinyl)-benzamide], for which the IC50 was 100 to 500 nM.
